Data published in patent US20080280941A1, “8-Phenoxy-Gamma Carboline Derivatives” (priority 2004, published 2008).
pIC50: −log10 of the molar value.

How the values were obtained:
[1] = biological target: T1, 5HT1A receptors of isolated membranes of rat brain (Rattus norvegicus, UniProt P19327); test: Binding to 5HT1A receptors, shifting of [3H]8-OH-DPAT; conditions: 100 nmol/l mesulergine
T1 construct: isolated membranes of rat brain; from tissue; host or cells: rat brain membranes
T1 sequence (P19327 1-422): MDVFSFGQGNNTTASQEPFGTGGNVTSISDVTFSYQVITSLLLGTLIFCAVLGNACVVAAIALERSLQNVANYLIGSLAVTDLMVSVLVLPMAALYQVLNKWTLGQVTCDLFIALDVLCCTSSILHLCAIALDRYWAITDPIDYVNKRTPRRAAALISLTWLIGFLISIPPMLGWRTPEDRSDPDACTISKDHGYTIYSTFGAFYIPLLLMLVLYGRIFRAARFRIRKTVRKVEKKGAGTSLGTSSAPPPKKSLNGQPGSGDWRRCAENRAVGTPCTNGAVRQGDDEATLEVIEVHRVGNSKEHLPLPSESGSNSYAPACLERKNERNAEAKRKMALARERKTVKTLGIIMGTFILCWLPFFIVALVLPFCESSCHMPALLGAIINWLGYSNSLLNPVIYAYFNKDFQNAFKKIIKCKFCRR

[2] = system: saphenous vein rings of rabbits; test: Vascular contractile response of isolated saphenous vein rings; set-up: species or system rabbits (new Zealand); conditions: rabbit saphenous vein rings, percent of the maximum effect induced by serotonine at 1 μmol/l
Protocol: (§1) 24 hours after a treatment with guanethidine (20 mg/kg, sc), the male Wistar rats (220-250 g) are anaesthetized with sodic pentobarbital (60 mg/kg, ip). The two back legs are shaved. After a cut in the upper part of the thigh, the saphenous nerve is cleared, cut, placed on a platinum electrode and immersed in a drop of paraffin oil. Only the electrode placed on the right leg is connected to a stimulator. This latter represents the “stimulated” leg by contrast to the “sham” left leg. The product (at a dosage of 5 μg/kg) or the corresponding solvent (NaCl 9 ‰-DMSO) are administrated via the jugular vein, 15 minutes before the electrical stimulation (ES). A plasmatic marker, Evans Blue (20 mg/kg iv) is administered through the penis vein 5 minutes before the ES. The saphenous nerve is stimulated according to the following conditions: 3V; 5 Hz; 1 ms; 5 minutes (Harvard stimulator). […] The Evans Blue is measured in the plasma and after extraction of the skin biopsies by a spectrophotometrical method, at 620 nm. […] The vascular contractile response has been measured with saphenous vein rings of rabbits (new Zealand, 2.5 to 3 kg) bound to a sensor, installed in organs baths (EMKA Technologies), containing a physiological Krebs-Henseileit solution. […] The vasoconstrictive effect of the molecules with increasing concentrations is evaluated with saphenous vein rings contracted in an intermediate manner with 40 mmol/l KCl and treated with 0.5 μmol/l pargyline, an inhibitor of monoamine oxydase. The results are expressed as percent of the maximum effect induced by serotonine at 1 μmol/l. […] The binding on the 5HT1B/5HT1D receptors of isolated membranes of bovine nuclear caudal has been measured by measuring the shifting of 5 nmoml/l of [^3H]5-carboxamidotryptamine by increasing concentrations of the molecule in the presence of 100 nmol/l of 8-OH-dipropylaminotetralin (8-OH-DPAT) in order to mask the 5HT1A receptors and in the presence of 100 nM of mesulergine in order to mask the 5HT2 receptors.

[3] = biological target: 5HT1B/5HT1D receptors of isolated membranes of bovine nuclear caudal; test: Binding on 5HT1B/5HT1D receptors, shifting of [3H]5-carboxamidotryptamine; conditions: 100 nmol/l 8-OH-DPAT and 100 nM mesulergine
Protocol: as §1

[4] = system: inflammation induced by the stimulation of the saphenous nerve; test: Inhibition of neurogenic inflammation (plasmatic extravasation) induced by electrical stimulation of the saphenous nerve; assay type: in vivo, male Wistar rats; conditions: rat, 15 minutes before electrical stimulation of the saphenous nerve, Evans Blue extravasation
Protocol: The results of the pharmacological studies are given below. • 1. The inhibitory power of the molecules on inflammation induced by the stimulation of the saphenous nerve has been measured at follows 24 hours after a treatment with guanethidine (20 mg/kg, sc), the male Wistar rats (220-250 g) are anaesthetized with sodic pentobarbital (60 mg/kg, ip). The two back legs are shaved. After a cut in the upper part of the thigh, the saphenous nerve is cleared, cut, placed on a platinum electrode and immersed in a drop of paraffin oil. Only the electrode placed on the right leg is connected to a stimulator. This latter represents the “stimulated” leg by contrast to the “sham” left leg. The product (at a dosage of 5 μg/kg) or the corresponding solvent (NaCl 9 ‰-DMSO) are administrated via the jugular vein, 15 minutes before the electrical stimulation (ES). A plasmatic marker, Evans Blue (20 mg/kg iv) is administered through the penis vein 5 minutes before the ES. The saphenous nerve is stimulated according to the following conditions: 3V; 5 Hz; 1 ms; 5 minutes (Harvard stimulator). At the end of the ES, a blood sample is realized by cardiac puncture and the skin of the edema of each leg (visualized by the extravasation of the Evans Blue) is sampled and weighted later. The animals are killed by anaesthetical overdose. The blood samples are centrifuged (3,000 rotations/minute, during 15 minutes). […] The Evans Blue is measured in the plasma and after extraction of the skin biopsies by a spectrophotometrical method, at 620 nm. […] The vascular contractile response has been measured with saphenous vein rings of rabbits (new Zealand, 2.5 to 3 kg) bound to a sensor, installed in organs baths (EMKA Technologies), containing a physiological Krebs-[…] solution. […] The vasoconstrictive effect of the molecules with increasing concentrations is evaluated with saphenous vein rings contracted in an intermediate manner with 40 mmol/l KCl and treated with 0.5 μmol/l pargyline, an inhibitor of monoamine oxydase. The results are expressed as percent of the maximum effect induced by serotonine at 1 μmol/l. […]

Row | pIC50 [1] | pIC50 [3] | melting point [°C] | SMILES | Contraction. Saph. Vein 10^−6 mol/l (%) [2] [%] | Neuro. Inf. Inhib. (%) 5 μg/kg iv [4] [%]
1 | 4.52 | 5.00 |  | c1ccc(Oc2ccc3[nH]c4c(c3c2)CNCC4)cc1 [Example 1, 8-Phenoxy-2,3,4,5-tetrahydro-1H-pyrido[4,3-b]indole] | 0 | 65
2 | < 5.00 | < 5.00 | 102.3 | c1ccc(CN2CCc3[nH]c4ccc(Oc5ccccc5)cc4c3C2)cc1 [Example 2, 8-Phenoxy-N-benzyl-2,3,4,5-tetrahydro-1H-pyrido[4,3-b]indole] | 0 | 60
3 | < 5.30 | < 5.30 |  | Cl.c1ccc(CN2CCc3[nH]c4ccc(Oc5ccccc5)cc4c3C2)cc1 [Example 3, 8-Phenoxy-N-benzyl-2,3,4,5-tetrahydro-5H-pyridinium[4,3-b]indole-hydrochloride] | 0 | 80
